Measured values reported in US9487515B2, “Compounds modulating c-fms and/or c-kit activity and uses therefor” (Plexxikon Inc., priority 2006, dated 2016).

molecular target: c-kit (Homo sapiens, UniProt P10721); assay: c-kit assays of Examples 40 and 41 (AlphaScreen kinase assays at 10 and 100 μM ATP, 33P-ATP filter assay, M-07e SCF-stimulated proliferation and phosphorylation)
Sequence (P10721 with tags, fused parts or gaps): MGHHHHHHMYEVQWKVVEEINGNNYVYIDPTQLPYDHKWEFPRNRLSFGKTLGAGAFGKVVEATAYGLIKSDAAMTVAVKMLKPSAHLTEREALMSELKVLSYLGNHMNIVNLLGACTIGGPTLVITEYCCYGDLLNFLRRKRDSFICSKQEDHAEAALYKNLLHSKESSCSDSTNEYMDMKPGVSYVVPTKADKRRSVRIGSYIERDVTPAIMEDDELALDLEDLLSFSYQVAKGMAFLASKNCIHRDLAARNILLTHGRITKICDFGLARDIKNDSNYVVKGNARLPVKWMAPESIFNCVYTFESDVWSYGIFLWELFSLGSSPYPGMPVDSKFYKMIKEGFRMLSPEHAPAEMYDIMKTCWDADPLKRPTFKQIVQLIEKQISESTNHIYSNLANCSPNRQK

IC50 [nM] | Compound
< 1000 | Cc1cnc2[nH]cc(Cc3ccc(NCc4ccccc4C(F)(F)F)nc3)c2c1 [P-0276, [5-(5-Methyl-1H-pyrrolo[2,3-b]pyridin-3-ylmethyl)-pyridin-2-yl]-(2-trifluoromethyl-benzyl)-amine]
< 1000 | CCc1nc(C)c(CNc2nc(Cl)c(Cc3c[nH]c4ncc(Cl)cc34)s2)[nH]1 [P-0197, [4-Chloro-5-(5-chloro-1H-pyrrolo[2,3-b]pyridin-3-ylmethyl)-thiazol-2-yl]-(2-ethyl-5-methyl-3H-imidazol-4-ylmethyl)-amine]
< 1000 | N#Cc1cnc2[nH]cc(Cc3ccc(NCc4ccccc4F)nc3)c2c1 [P-0271, 3-[6-(2-Fluoro-benzylamino)-pyridin-3-ylmethyl]-1H-pyrrolo[2,3-b]pyridine-5-carbonitrile]
< 1000 | Clc1ccc(CNc2ncc(Cc3c[nH]c4ncccc34)cn2)cc1 [P-0307, (4-Chloro-benzyl)-[5-(1H-pyrrolo[2,3-b]pyridin-3-ylmethyl)-pyrimidin-2-yl]-amine]
< 1000 | Fc1cccc(CCNc2ccc(Cc3c[nH]c4ncccc34)cn2)c1 [P-0128, [2-(3-Fluoro-phenyl)-ethyl]-[5-(1H-pyrrolo[2,3-b]pyridin-3-ylmethyl)-pyridin-2-yl]-amine]
< 1000 | COc1ccc(CNc2nc(Cl)c(Cc3c[nH]c4ncc(Cl)cc34)s2)cn1 [P-0190, [4-Chloro-5-(5-chloro-1H-pyrrolo[2,3-b]pyridin-3-ylmethyl)-thiazol-2-yl]-(6-methoxy-pyridin-3-ylmethyl)-amine]
< 1000 | Fc1cc(F)cc(CNc2ccc(Cc3c[nH]c4ncccc34)cn2)c1 [P-0356, (3,5-Difluoro-benzyl)-[5-(1H-pyrrolo[2,3-b]pyridin-3-ylmethyl)-pyridin-2-yl]-amine]
< 1000 | Fc1cc(CNc2ccc(Cc3c[nH]c4ncccc34)cn2)cc(C(F)(F)F)c1 [P-0346, (3-Fluoro-5-trifluoromethyl-benzyl)-[5-(1H-pyrrolo[2,3-b]pyridin-3-ylmethyl)-pyridin-2-yl]-amine]
< 1000 | Cc1cc(CNc2ccc(Cc3c[nH]c4ncccc34)cn2)no1 [P-0095, (5-Methyl-isoxazol-3-ylmethyl)-[5-(1H-pyrrolo[2,3-b]pyridin-3-ylmethyl)-pyridin-2-yl]-amine]
< 1000 | O=C(Nc1ccc(Cc2c[nH]c3ncccc23)cn1)c1cccc(Cl)c1 [P-0111, 3-chloro-N-[5-(1H-pyrrolo[2,3-b]pyridin-3-ylmethyl)-pyridin-2-yl]-benzamide]
< 1000 | Clc1cnc2[nH]cc(Cc3ccc(NCc4ccccc4Cl)nc3)c2c1 [P-0280, (2-Chloro-benzyl)-[5-(5-chloro-1H-pyrrolo[2,3-b]pyridin-3-ylmethyl)-pyridin-2-yl]-amine]
< 1000 | Cc1cnc2[nH]cc(Cc3ccc(NCc4cc(F)ccc4F)nc3)c2c1 [P-0297, (2,5-Difluoro-benzyl)-[5-(5-methyl-1H-pyrrolo[2,3-b]pyridin-3-ylmethyl)-pyridin-2-yl]-amine]
< 1000 | Cc1nn(C(=O)NCc2ccc(Cl)cc2)c(C)c1Cc1c[nH]c2ncc(Cl)cc12 [P-0159, 4-(5-Chloro-1H-pyrrolo[2,3-b]pyridin-3-ylmethyl)-3,5-dimethyl-pyrazole-1-carboxylic acid 4-chloro-benzylamide]
< 1000 | COc1cnc2[nH]cc(Cc3ccc(NCc4ccc(C(F)(F)F)nc4)nc3F)c2c1 [P-0187, [6-Fluoro-5-(5-methoxy-1H-pyrrolo[2,3-b]pyridin-3-ylmethyl)-pyridin-2-yl]-(6-trifluoromethyl-pyridin-3-ylmethyl)-amine]
< 1000 | Fc1ccc(F)c(CNc2ccc(Cc3c[nH]c4ncc(Cl)cc34)cn2)c1 [P-0298, [5-(5-Chloro-1H-pyrrolo[2,3-b]pyridin-3-ylmethyl)-pyridin-2-yl]-(2,5-difluoro-benzyl)-amine]
< 1000 | CCCS(=O)(=O)Nc1cccc(CNc2ccc(Cc3c[nH]c4ncccc34)cn2)c1F [P-0377, Propane-1-sulfonic acid (2-fluoro-3-{[5-(1H-pyrrolo[2,3-b]pyridin-3-ylmethyl)-pyridin-2-ylamino]-methyl}-phenyl)-amide]
< 1000 | C[C@@H](Nc1ccc(Cc2c[nH]c3ncccc23)cn1)c1ccccc1 [P-0125, ((R)-1-Phenyl-ethyl)-[5-(1H-pyrrolo[2,3-b]pyridin-3-ylmethyl)-pyridin-2-yl]-amine]
< 1000 | Fc1nc(NCc2ccc(C(F)(F)F)nc2)ccc1Cc1c[nH]c2ncccc12 [P-0188, [6-Fluoro-5-(1H-pyrrolo[2,3-b]pyridin-3-ylmethyl)-pyridin-2-yl]-(6-trifluoromethyl-pyridin-3-ylmethyl)-amine]
< 1000 | Fc1ccc(C(F)(F)F)cc1CNc1ncc(Cc2c[nH]c3ncccc23)cn1 [P-0291, (2-Fluoro-5-trifluoromethyl-benzyl)-[5-(1H-pyrrolo[2,3-b]pyridin-3-ylmethyl)-pyrimidin-2-yl]-amine]
< 1000 | Clc1ccc(CNc2nc(Cl)c(Cc3c[nH]c4ncc(Cl)cc34)s2)cc1 [P-0194, (4-Chloro-benzyl)-[4-chloro-5-(5-chloro-1H-pyrrolo[2,3-b]pyridin-3-ylmethyl)-thiazol-2-yl]-amine]
< 1000 | Cc1nc(NCc2ccc(Cl)cc2)ccc1Cc1c[nH]c2ncccc12 [P-0014, (4-Chloro-benzyl)-[6-methyl-5-(1H-pyrrolo[2,3-b]pyridin-3-ylmethyl)-pyridin-2-yl]-amine]

Continued, compound first:

Compound | IC50 [nM]
FC(F)(F)c1ccc(CNc2nc(Cl)c(Cc3c[nH]c4ncccc34)s2)cn1 [P-0173, [4-Chloro-5-(1H-pyrrolo[2,3-b]pyridin-3-ylmethyl)-thiazol-2-yl]-(6-trifluoromethyl-pyridin-3-ylmethyl)-amine] | < 1000
Fc1c(CNc2ccc(Cc3c[nH]c4ncccc34)cn2)cccc1C(F)(F)F [P-0365, (2-Fluoro-3-trifluoromethyl-benzyl)-[5-(1H-pyrrolo[2,3-b]pyridin-3-ylmethyl)-pyridin-2-yl]-amine] | < 1000
O=C(Nc1ccc(Cc2c[nH]c3ncccc23)cn1)c1ccnc(Cl)c1 [P-0123, 2-Chloro-N-[5-(1H-pyrrolo[2,3-b]pyridin-3-ylmethyl)-pyridin-2-yl]-isonicotinamide] | < 1000
FC(F)(F)c1ccccc1CNc1ncc(Cc2c[nH]c3ncccc23)cn1 [P-0302, [5-(1H-Pyrrolo[2,3-b]pyridin-3-ylmethyl)-pyrimidin-2-yl]-(2-trifluoromethyl-benzyl)-amine] | < 1000
FC(F)(F)c1ccccc1CNc1ccc(Cc2c[nH]c3ncccc23)cn1 [P-0226, [5-(1H-Pyrrolo[2,3-b]pyridin-3-ylmethyl)-pyridin-2-yl]-(2-trifluoromethyl-benzyl)-amine] | < 1000
CCCOc1ccccc1CNc1ccc(Cc2c[nH]c3ncccc23)cn1 [P-0357, (2-Propoxy-benzyl)-[5-(1H-pyrrolo[2,3-b]pyridin-3-ylmethyl)-pyridin-2-yl]-amine] | < 1000
COc1cnc2[nH]cc(Cc3ccc(NCc4ccccc4C(F)(F)F)nc3)c2c1 [P-0326, [5-(5-Methoxy-1H-pyrrolo[2,3-b]pyridin-3-ylmethyl)-pyridin-2-yl]-(2-trifluoromethyl-benzyl)-amine] | < 1000
FC(F)(F)Oc1ccccc1CNc1ncc(Cc2c[nH]c3ncc(Cl)cc23)cn1 [P-0402, [5-(5-Chloro-1H-pyrrolo[2,3-b]pyridin-3-ylmethyl)-pyrimidin-2-yl]-(2-trifluoromethoxy-benzyl)-amine] | < 1000
O=C(Nc1ccc(Cc2c[nH]c3ncccc23)cn1)c1ccc(Cl)c(Cl)c1 [P-0100, 3,4-Dichloro-N-[5-(1H-pyrrolo[2,3-b]pyridin-3-ylmethyl)-pyridin-2-yl]-benzamide] | < 1000
N#Cc1cnc2[nH]cc(Cc3ccc(NCc4c(F)cccc4F)nc3)c2c1 [P-0277, 3-[6-(2,6-Difluoro-benzylamino)-pyridin-3-ylmethyl]-1H-pyrrolo[2,3-b]pyridine-5-carbonitrile] | < 1000
Fc1ccc(Cl)c(CNc2ncc(Cc3c[nH]c4ncccc34)cn2)c1 [P-0407, (2-Chloro-5-fluoro-benzyl)-[5-(1H-pyrrolo[2,3-b]pyridin-3-ylmethyl)-pyrimidin-2-yl]-amine] | < 1000
O=C(Nc1ccc(Cc2c[nH]c3ncccc23)cn1)c1ccccn1 [P-0107, Pyridine-2-carboxylic acid [5-(1H-pyrrolo[2,3-b]pyridin-3-ylmethyl)-pyridin-2-yl]-amide] | < 1000
Fc1cnc2[nH]cc(Cc3ccc(NCc4ccccc4C(F)(F)F)nc3)c2c1 [P-0325, [5-(5-Fluoro-1H-pyrrolo[2,3-b]pyridin-3-ylmethyl)-pyridin-2-yl]-(2-trifluoromethyl-benzyl)-amine] | < 1000
COc1ccccc1CNC(=O)n1nc(C)c(Cc2c[nH]c3ncccc23)c1C [P-0145, 3,5-Dimethyl-4-(1H-pyrrolo[2,3-b]pyridin-3-ylmethyl)-pyrazole-1-carboxylic acid 2-methoxy-benzylamide] | < 1000
COCCNc1ccc(Cc2c[nH]c3ncccc23)cn1 [P-0098, (2-Methoxy-ethyl)-[5-(1H-pyrrolo[2,3-b]pyridin-3-ylmethyl)-pyridin-2-yl]-amine] | < 1000
FC(F)Oc1ccccc1CNc1ccc(Cc2c[nH]c3ncccc23)cn1 [P-0367, (2-Difluoromethoxy-benzyl)-[5-(1H-pyrrolo[2,3-b]pyridin-3-ylmethyl)-pyridin-2-yl]-amine] | < 1000
c1cncc(CNc2ccc(Cc3c[nH]c4ncccc34)cn2)c1 [P-0094, Pyridin-3-ylmethyl-[5-(1H-pyrrolo[2,3-b]pyridin-3-ylmethyl)-pyridin-2-yl]-amine] | < 1000
COc1ccc(CNc2ccc(Cc3c[nH]c4ncc(F)cc34)cn2)cn1 [P-0331, [5-(5-Fluoro-1H-pyrrolo[2,3-b]pyridin-3-ylmethyl)-pyridin-2-yl]-(6-methoxy-pyridin-3-ylmethyl)-amine] | < 1000
FC(F)(F)c1ccc(CNc2nc(Cl)c(Cc3c[nH]c4ncc(Cl)cc34)s2)cn1 [P-0242, [4-Chloro-5-(5-chloro-1H-pyrrolo[2,3-b]pyridin-3-ylmethyl)-thiazol-2-yl]-(6-trifluoromethyl-pyridin-3-ylmethyl)-amine] | < 1000
